Patent US7989464B2, “mGluR1 antagonists as therapeutic agents” (Schering Corporation, priority 2004, dated 2011)

molecular target: T1, hmGluR1 receptor (Homo sapiens, UniProt Q13255); assay: IC50 determination: intracellular calcium mobilization (FLIPR) upon Quisqualate stimulation in CHO cells stably expressing hmGluR1; assay type: cell-based; conditions: against Quisqualate 1 μM (EC80), FLIPR calcium mobilization, read-out: IC50 Class
T1 construct: expressed in transfected cells
Experimental: A CHO cell line stably expressing hmGluR1 receptor was established. One day prior to assay, cells were split in growth media at concentration of 50,000 cells/well in a volume of 100 μl and seeded into black clear-bottom 96-well plates. After two to six hours, when cells were well attached to the plate, growth medium was replaced with assay medium (100 μL) consisting of DMEM high glucose, supplemented with GPT (1 U/mL) and Sodium pyruvate, 1 mM. Following overnight incubation, medium was discarded and cells were loaded for 2 h with dye from the Calcium 3 Assay Reagent Kit (Molecular Devices, # R8033), prepared according to manufacturers' instructions. […] Test compounds were added 10 minutes before Quisqualate.

T1 sequence (Q13255 19-1194): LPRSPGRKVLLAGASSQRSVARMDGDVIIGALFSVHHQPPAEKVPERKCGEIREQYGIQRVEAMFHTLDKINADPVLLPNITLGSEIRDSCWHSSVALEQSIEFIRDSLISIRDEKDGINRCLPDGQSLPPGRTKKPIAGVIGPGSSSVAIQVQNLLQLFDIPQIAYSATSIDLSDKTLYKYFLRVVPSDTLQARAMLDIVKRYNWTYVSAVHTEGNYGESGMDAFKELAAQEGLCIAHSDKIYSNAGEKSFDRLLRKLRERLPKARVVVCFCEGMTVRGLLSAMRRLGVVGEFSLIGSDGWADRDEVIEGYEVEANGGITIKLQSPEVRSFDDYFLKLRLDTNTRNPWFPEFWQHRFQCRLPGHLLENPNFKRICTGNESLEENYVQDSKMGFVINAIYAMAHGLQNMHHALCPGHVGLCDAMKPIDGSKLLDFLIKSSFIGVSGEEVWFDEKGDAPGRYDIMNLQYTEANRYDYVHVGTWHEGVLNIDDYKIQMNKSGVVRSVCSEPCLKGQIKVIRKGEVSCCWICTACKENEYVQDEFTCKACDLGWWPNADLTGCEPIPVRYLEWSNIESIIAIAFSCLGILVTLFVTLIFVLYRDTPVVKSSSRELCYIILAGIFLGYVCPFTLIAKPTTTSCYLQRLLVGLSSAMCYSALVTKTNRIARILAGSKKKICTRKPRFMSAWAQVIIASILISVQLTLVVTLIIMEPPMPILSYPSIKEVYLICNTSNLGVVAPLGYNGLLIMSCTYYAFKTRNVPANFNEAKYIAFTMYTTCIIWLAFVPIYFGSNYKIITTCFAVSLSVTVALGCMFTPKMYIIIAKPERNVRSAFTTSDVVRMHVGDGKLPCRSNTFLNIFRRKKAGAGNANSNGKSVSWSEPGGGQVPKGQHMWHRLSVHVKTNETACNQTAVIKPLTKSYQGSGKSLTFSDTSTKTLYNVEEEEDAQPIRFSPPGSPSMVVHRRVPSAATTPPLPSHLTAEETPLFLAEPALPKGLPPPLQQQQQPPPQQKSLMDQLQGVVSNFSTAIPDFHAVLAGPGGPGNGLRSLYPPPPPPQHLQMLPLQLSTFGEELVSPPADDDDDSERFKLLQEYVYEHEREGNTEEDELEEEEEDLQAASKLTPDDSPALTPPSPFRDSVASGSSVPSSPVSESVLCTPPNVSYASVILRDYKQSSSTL

SMILES | IC50 [µM]
Cc1ccc(-n2cnc3c(sc4cnnc(NC5CC5)c43)c2=O)cc1 [167A] | 0.15 to 1
COCCNc1ncnc2sc3c(=O)n(CCOC)cnc3c12 [95DX] | > 1
COc1ccnc2sc3c(=O)n(-c4ccc(Cl)cc4C)cnc3c12 [28FU] | > 1
COCCNc1ncnc2sc3c(=O)n(-c4ccc(C)cc4)cnc3c12 [95DJ] | < 0.05
COc1ccc(-n2cnc3c(sc4ncnc(N)c43)c2=O)cc1 [95FU] | 0.05 to 0.15
COCCn1cnc2c(sc3ncnc(N(C)C)c32)c1=O [95EA] | > 1
C#CCOc1ncnc2sc3c(=O)n(-c4ccc(C)cc4)cnc3c12 [66M] | 0.05 to 0.15
CNc1c(C#N)cnc2sc3c(=O)n(-c4ccc(OC)cc4)cnc3c12 [28FQ] | 0.05 to 0.15
O=c1c2sc3nccc(NCCCO)c3c2ncn1-c1ccc2occc2c1 [28BF] | < 0.05
O=c1c2sc3nccc(NCCCO)c3c2ncn1-c1ccc(Br)cc1 [28GQ] | < 0.05
CC(C)(C)Nc1ccnc2sc3c(=O)n(-c4ccc(Cl)cc4)cnc3c12 [28EP] | 0.15 to 1
CNc1ncnc2sc3c(=O)n(-c4ccc(Cl)cc4)cnc3c12 [95DB] | < 0.05
CN(C)c1c(Cl)cnc2sc3c(=O)n(-c4ccc(Cl)cc4)cnc3c12 [compound 199] | < 0.05
Cc1ccc(-n2cnc3c(sc4nccc(NC(C)(C)C)c43)c2=O)cc1 [28EO] | 0.15 to 1
COc1ccc(-n2cnc3c(sc4ncnc(Nc5ccccc5)c43)c2=O)cc1F [95GA] | > 1
O=c1c2sc3nccc(N4CCCC4)c3c2ncn1-c1ccc(Cl)cc1 [28GF] | < 0.05
C#CCNc1ncnc2sc3c(=O)n(-c4ccc(OC)cc4)cnc3c12 [95EI] | < 0.05
Cc1ccc(-n2cnc3c(sc4nccc(NC5CCOCC5)c43)c2=O)cc1 [28DG] | 0.15 to 1
Cc1ccc(-n2cnc3c(sc4cnnc(Cl)c43)c2=O)cc1 [compound 166] | > 1
Nc1ccnc2sc3c(=O)n(-c4ccc(Cl)cc4)cnc3c12 [28FK] | < 0.05
COCCCNc1ccnc2sc3c(=O)n(-c4ccc(O)cc4)cnc3c12 [28HW] | < 0.05
Cc1ccc(-n2cnc3c(sc4ncc(Br)c(NCCO)c43)c2=O)cc1 [28FN] | < 0.05
COc1ccnc2sc3c(=O)n(-c4ccncc4)cnc3c12 [161C] | > 1
C#CCOc1nncc2sc3c(=O)n(-c4ccc(C)cc4)cnc3c12 [167E] | > 1
CCNc1ncnc2sc3c(=O)n(-c4ccc5ncsc5c4)cnc3c12 [95BK] | < 0.05

SMILES | IC50 [µM]
C#CC(C)Nc1ccnc2sc3c(=O)n(-c4ccc(OC)cc4)cnc3c12 (stereo not shown) [28FA] | 0.15 to 1
CNc1cc(O)nc2sc3c(=O)n(-c4ccc(C)cc4)cnc3c12 [172B] | < 0.05
O=c1c2sc3ncnc(Nc4ccccc4)c3c2ncn1-c1ccc(F)cc1 [95FZ] | > 1
C=C(C)CNc1ccnc2sc3c(=O)n(-c4ccc(C)cc4)cnc3c12 [28EW] | < 0.05
COc1ccc(-n2cnc3c(sc4nccc(NCCC(C)O)c43)c2=O)cc1 (stereo not shown) [28HP] | < 0.05
CC(=O)c1ccnc2sc3c(=O)n(-c4ccc(Cl)cc4)cnc3c12 [compound 184] | 0.05 to 0.15
C=C(C)CNc1ncnc2sc3c(=O)n(-c4ccc(OC)c(F)c4)cnc3c12 [95FB] | 0.05 to 0.15
O=c1c2sc3nccc(NC4CC4)c3c2ncn1-c1ccc2c(c1)OCCO2 [28CK] | < 0.05
O=c1c2sc3ncnc(Nc4ccccc4)c3c2ncn1-c1ccccc1 [95GC] | > 1
CN(CCO)c1ccnc2sc3c(=O)n(-c4ccc(F)cc4)cnc3c12 [28HH] | 0.05 to 0.15
COc1ccc(Nc2ncnc3sc4c(=O)n(C5CC5)cnc4c23)cc1 [95GL] | 0.15 to 1
C=CCOc1ccnc2sc3c(=O)n(-c4ccc(Cl)cc4)cnc3c12 [66F] | < 0.05
COc1ccc(-n2cnc3c(sc4nccc(NCCCO)c43)c2=O)cc1 [28HK] | < 0.05
COCCCNc1ccnc2sc3c(=O)n(-c4ccc(F)cc4)cnc3c12 [28GS] | < 0.05
Cc1noc2cc(F)c(-n3cnc4c(sc5nccc(N(C)C)c54)c3=O)cc12 [28EL] | > 1
C#CCNc1ncnc2sc3c(=O)n(-c4ccc5sccc5c4)cnc3c12 [95EP] | 0.15 to 1
Cc1ccc(-n2cnc3c(sc4nccc(NC(C)(C)CO)c43)c2=O)cc1 [28EX] | 0.05 to 0.15
CCNc1ccnc2sc3c(=O)n(-c4ccc(Cl)cc4)cnc3c12 [28HZ] | < 0.05
CN(C)c1ccnc2sc3c(=O)n(-c4cccc(F)c4)cnc3c12 [28CP] | < 0.05
O=c1c2sc3ncnc(Nc4ccccc4)c3c2ncn1-c1ccc(Br)cc1 [95GF] | > 1
Cc1ccc(-n2cnc3c(sc4nccc(NC5CCC5)c43)c2=O)cc1 [28DA] | 0.15 to 1
COc1ccc(Nc2ncnc3sc4c(=O)n(-c5ccccc5)cnc4c23)cc1 [95GI] | 0.15 to 1
CNc1ncnc2sc3c(=O)n(-c4ccc(OC)cc4C)cnc3c12 [95BH] | < 0.05
C=C(C)CNc1ccnc2sc3c(=O)n(-c4ccc5c(c4)OCO5)cnc3c12 [28FG] | 0.15 to 1
COc1ncnc2sc3c(=O)n(-c4ccc(C)cc4)cnc3c12 [95FN] | 0.15 to 1

same assay, conditions: against Quisqualate 1 μM (EC80), FLIPR calcium mobilization, read-out: mGluR1 IC50

SMILES | IC50 [µM]
O=c1c2sc3nccc(NCCCO)c3c2ncn1-c1ccc(Br)cc1 [28GQ] | 0.00066
CCNc1ccnc2sc3c(=O)n(-c4ccc(Cl)cc4)cnc3c12 [28HZ] | 0.00122
Cc1cc(-n2cnc3c(sc4nccc(N(C)C)c43)c2=O)ccc1Br [7DR] | 0.00173

same assay, conditions: against Quisqualate 1 μM (EC80), class symbols, read-out: mGIuR 1 IC50

SMILES | IC50 [µM]
CN(C)c1ccnc2sc3c(=O)n(-c4ccc5[nH]ccc5c4)cnc3c12 [7AM] | < 0.05
Cc1ccc(-n2cnc3c(sc4nccc(C(=O)O)c43)c2=O)cc1 [compound 77] | > 1
CCCN(C)c1ccnc2sc3c(=O)n(-c4ccc(C)cc4)cnc3c12 [28AT] | < 0.05
CCNc1ccnc2sc3c(=O)n(C4CCCCC4)cnc3c12 [28P] | < 0.05
CC(C)Nc1ccnc2sc3c(=O)n(C4CCCCC4)cnc3c12 [28AH] | 0.15 to 1
Cc1cc(N(C)C)c2c(n1)sc1c(=O)n(-c3ccc4ncsc4c3)cnc12 [7CO] | 0.05 to 0.15
CN(C)c1ccnc2sc3c(=O)n(-c4ccc(I)cc4)cnc3c12 [7M] | > 1
CN(C)c1ccnc2c1c1ncn(-c3ccc(OC(F)F)cc3)c(=O)c1n2C [134D] | > 1
CC(c1ccccc1)n1cnc2c(sc3nccc(N(C)C)c32)c1=O (stereo not shown) [7AH] | 0.05 to 0.15
CC(=O)Nn1c(C)nc2c(sc3nccc(N(C)C)c32)c1=O [65A] | > 1
CN(C)c1ccnc2sc3c(=O)n(-c4cccc(Br)c4)cnc3c12 [7DL] | < 0.05
O=c1c2sc3nccc(NC4CCCCC4)c3c2ncn1-c1ccc(OC(F)(F)F)cc1 [28F] | > 1
Cc1cc(N(C)C)c2c(n1)sc1c(=O)n(-c3ccc(F)cc3)cnc12 [7DC] | < 0.05
CCc1ccc(-n2cnc3c(sc4nc(C)cc(N(C)C)c43)c2=O)cc1 [7CP] | 0.05 to 0.15
Cc1ccc(Nn2cnc3c(sc4nccc(N(C)C)c43)c2=O)cc1 [60C] | < 0.05
CN(C)c1ccnc2sc3c(=O)n(-c4ccc5c(c4)CC=C5)cnc3c12 [7BL] | < 0.05
CN(C)c1ccnc2sc3c(=O)n(-c4ccc5[nH]c(C(F)(F)F)nc5c4)cnc3c12 [7BD] | > 1
CN(C)c1ccc(-n2cnc3c(sc4nccc(N(C)C)c43)c2=O)cc1 [7AJ] | < 0.05
Cc1ccc(-n2cnc3c(sc4nc(N)nc(N)c43)c2=O)cc1 [71A] | < 0.05
CSc1ccc(-n2cnc3c4c(N(C)C)ccnc4n(C)c3c2=O)cc1 [134C] | > 1
C#CCNc1ccnc2sc3c(=O)n(-c4ccc(C)cc4)c(C)nc3c12 [113K] | < 0.05
Cc1cc(N(C)C)c2c(n1)sc1c(=O)n(C3CCCCC3)cnc12 [7CZ] | < 0.05

SMILES | IC50 [µM]
Cc1ccc(-n2cnc3c(sc4nccc(NC[C@@H](C)O)c43)c2=O)cc1 [29A] | 0.15 to 1
CCN(C)c1ccnc2sc3c(=O)n(-c4ccc(C)cc4)cnc3c12 [28AK] | < 0.05
COc1ccc(-n2cnc3c(sc4nc(C)cc(N(C)C)c43)c2=O)cc1F [7CL] | 0.05 to 0.15
Cc1ccc(-n2cnc3c(sc4nc(C(C)C)cc(N(C)C)c43)c2=O)cc1 [87A] | 0.15 to 1
CN(C)c1ccnc2sc3c(=O)n(-c4ccc(C(C)(C)C)cc4)cnc3c12 [7BB] | > 1
CC(=O)Nc1cccc(-n2cnc3c(sc4nccc(N(C)C)c43)c2=O)c1 [7CI] | 0.15 to 1
COc1ccc(-n2c(C)nc3c(sc4nccc(N(C)C)c43)c2=O)cc1 [116D] | < 0.05
COc1ccc(-n2cnc3c(sc4nccc(Br)c43)c2=O)cc1 [compound 150] | 0.15 to 1
Cc1cc(N(C)C)c2c(n1)sc1c(=O)n(-c3ccc(Br)cc3)cnc12 [7CY] | < 0.05
CN(C)c1c(C(N)=O)cnc2sc3c(=O)n(C4CCCCC4)cnc3c12 [compound 49] | > 1
CNc1c(C#N)cnc2sc3c(=O)n(C4CCCCC4)cnc3c12 [compound 48] | 0.15 to 1
COc1ccc(-n2cnc3c(sc4nccc(N(C)C)c43)c2=O)cc1F [7AP] | < 0.05
CN(C)c1ccnc2sc3c(=O)n(-c4ccc5c(c4)CCO5)cnc3c12 [7CG] | < 0.05
CN(C)c1ccnc2sc3c(=O)n(N)cnc3c12 [60H] | > 1
CN(C)c1cncc2sc3c(=O)n(N4CCCCC4)cnc3c12 [60L] | 0.15 to 1
CCOc1ccc(-n2cnc3c(sc4nccc(N(C)C)c43)c2=O)cc1 [7AE] | 0.15 to 1
CNc1ccnc2sc3c(=O)n(-c4ccc(OC)cc4)cnc3c12 [28I] | < 0.05
CN(C)c1ccnc2sc3c(=O)n(NC(=O)C(F)(F)F)c(C(F)(F)F)nc3c12 [65B] | > 1
Cc1cc(-n2cnc3c(sc4nccc(N(C)C)c43)c2=O)ccc1Br [7DR] | < 0.05
COc1cc(-n2cnc3c(sc4nccc(N(C)C)c43)c2=O)c(OC)cc1Cl [7V] | > 1
CN(C)c1c(C#N)ncc2sc3c(=O)n(-c4ccc(Cl)cc4)cnc3c12 [compound 55] | 0.05 to 0.15
CCNc1ccnc2sc3c(=O)n(-c4ccc(CC)cc4)cnc3c12 [131F] | 0.05 to 0.15
